In ChEMBL document CHEMBL5723035, “Affinity Biochemical Literature for EUbOPEN Chemogenomic Library” (2024) one finds IC50, Kd and Ki data, which are given here for twelve compounds.

Assay [1] concerns the target T1, Nucleotide triphosphate diphosphatase NUDT15 (Homo sapiens, UniProt Q9NV35). The assay can be described thus: Affinity Biochemical interaction: (enzyme-coupled MG (Malachite Green) assay with […]) EUB0002330a NUDT15. In kind it is functional. The arrangement: mode of action Inhibitor, recommended concentration 1 uM.
Assay [2] concerns the target T1, Nucleotide triphosphate diphosphatase NUDT15. Nature of the assay: Affinity Biochemical interaction: (enzyme-coupled MG (Malachite Green) assay with 6-thio-dGTP) EUB0002330a NUDT15. In kind it is functional. The arrangement: mode of action Inhibitor, recommended concentration 1 uM.
The target in assay [3] is Protein-arginine deiminase type-4 (Homo sapiens, UniProt Q9UM07). Nature of the assay: Affinity Biochemical interaction: (enzyme inhibition, detection of citrullated histone H3 by either immunoblot with LiC or quantitation or an ELISA-based assay using anti-citrullated histone H3 rabbit polyclonal antibody) EUB0002517a PADI4. The assay is classed as functional. The arrangement: mode of action Inhibitor, recommended concentration 1 uM.

The target in assay [4] is Ubiquitin carboxyl-terminal hydrolase 14 (Homo sapiens, UniProt P54578).
The target of a further assay is Acid ceramidase (Homo sapiens, UniProt Q13510). The assay can be described thus: Affinity Biochemical interaction: (inhibition of substrate hydrolysis determined through mass spectrometry) EUB0002527a ASAH1. The assay is classed as functional. Further details: mode of action Inhibitor, recommended concentration 1 uM.
In another assay the target is Histone deacetylase 1 (Homo sapiens, UniProt Q13547). The assay can be described thus: Affinity Biochemical interaction: (fluorometric activity assay) EUB0002519a HDAC1. In kind it is functional. The arrangement: mode of action Inhibitor, recommended concentration 1 uM.
Histone deacetylase 1, sequence (Q13547 whole entry): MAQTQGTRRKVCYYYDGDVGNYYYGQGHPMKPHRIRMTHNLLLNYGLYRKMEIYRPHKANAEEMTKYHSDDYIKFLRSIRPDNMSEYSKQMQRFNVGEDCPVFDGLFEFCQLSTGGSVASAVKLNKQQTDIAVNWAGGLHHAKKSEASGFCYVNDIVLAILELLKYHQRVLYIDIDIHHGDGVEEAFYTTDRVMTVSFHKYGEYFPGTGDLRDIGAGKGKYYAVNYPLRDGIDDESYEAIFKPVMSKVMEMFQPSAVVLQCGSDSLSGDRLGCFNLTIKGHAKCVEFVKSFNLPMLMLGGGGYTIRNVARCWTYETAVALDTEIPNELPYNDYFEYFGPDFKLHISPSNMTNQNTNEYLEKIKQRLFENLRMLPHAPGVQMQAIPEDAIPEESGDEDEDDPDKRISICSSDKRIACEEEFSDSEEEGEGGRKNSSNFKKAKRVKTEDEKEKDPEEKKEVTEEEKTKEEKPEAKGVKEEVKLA
The target in another assay is Histone deacetylase 2 (Homo sapiens, UniProt Q92769). Nature of the assay: Affinity Biochemical interaction: (fluorometric activity assay) EUB0002519a HDAC2. In kind it is functional. The arrangement: mode of action Inhibitor, recommended concentration 1 uM.
For assay [5], the target named is T2, Breast cancer type 1 susceptibility protein (Homo sapiens, UniProt P38398). Nature of the assay: Affinity Biochemical interaction: (Fluorescence polarisation assay) EUB0002518a BRCA1. The assay is classed as functional. The arrangement: mode of action Inhibitor, recommended concentration 1 uM. (Polarisation of emitted light reports the rotation of a fluorescent probe.)
T2 sequence (P38398 whole entry): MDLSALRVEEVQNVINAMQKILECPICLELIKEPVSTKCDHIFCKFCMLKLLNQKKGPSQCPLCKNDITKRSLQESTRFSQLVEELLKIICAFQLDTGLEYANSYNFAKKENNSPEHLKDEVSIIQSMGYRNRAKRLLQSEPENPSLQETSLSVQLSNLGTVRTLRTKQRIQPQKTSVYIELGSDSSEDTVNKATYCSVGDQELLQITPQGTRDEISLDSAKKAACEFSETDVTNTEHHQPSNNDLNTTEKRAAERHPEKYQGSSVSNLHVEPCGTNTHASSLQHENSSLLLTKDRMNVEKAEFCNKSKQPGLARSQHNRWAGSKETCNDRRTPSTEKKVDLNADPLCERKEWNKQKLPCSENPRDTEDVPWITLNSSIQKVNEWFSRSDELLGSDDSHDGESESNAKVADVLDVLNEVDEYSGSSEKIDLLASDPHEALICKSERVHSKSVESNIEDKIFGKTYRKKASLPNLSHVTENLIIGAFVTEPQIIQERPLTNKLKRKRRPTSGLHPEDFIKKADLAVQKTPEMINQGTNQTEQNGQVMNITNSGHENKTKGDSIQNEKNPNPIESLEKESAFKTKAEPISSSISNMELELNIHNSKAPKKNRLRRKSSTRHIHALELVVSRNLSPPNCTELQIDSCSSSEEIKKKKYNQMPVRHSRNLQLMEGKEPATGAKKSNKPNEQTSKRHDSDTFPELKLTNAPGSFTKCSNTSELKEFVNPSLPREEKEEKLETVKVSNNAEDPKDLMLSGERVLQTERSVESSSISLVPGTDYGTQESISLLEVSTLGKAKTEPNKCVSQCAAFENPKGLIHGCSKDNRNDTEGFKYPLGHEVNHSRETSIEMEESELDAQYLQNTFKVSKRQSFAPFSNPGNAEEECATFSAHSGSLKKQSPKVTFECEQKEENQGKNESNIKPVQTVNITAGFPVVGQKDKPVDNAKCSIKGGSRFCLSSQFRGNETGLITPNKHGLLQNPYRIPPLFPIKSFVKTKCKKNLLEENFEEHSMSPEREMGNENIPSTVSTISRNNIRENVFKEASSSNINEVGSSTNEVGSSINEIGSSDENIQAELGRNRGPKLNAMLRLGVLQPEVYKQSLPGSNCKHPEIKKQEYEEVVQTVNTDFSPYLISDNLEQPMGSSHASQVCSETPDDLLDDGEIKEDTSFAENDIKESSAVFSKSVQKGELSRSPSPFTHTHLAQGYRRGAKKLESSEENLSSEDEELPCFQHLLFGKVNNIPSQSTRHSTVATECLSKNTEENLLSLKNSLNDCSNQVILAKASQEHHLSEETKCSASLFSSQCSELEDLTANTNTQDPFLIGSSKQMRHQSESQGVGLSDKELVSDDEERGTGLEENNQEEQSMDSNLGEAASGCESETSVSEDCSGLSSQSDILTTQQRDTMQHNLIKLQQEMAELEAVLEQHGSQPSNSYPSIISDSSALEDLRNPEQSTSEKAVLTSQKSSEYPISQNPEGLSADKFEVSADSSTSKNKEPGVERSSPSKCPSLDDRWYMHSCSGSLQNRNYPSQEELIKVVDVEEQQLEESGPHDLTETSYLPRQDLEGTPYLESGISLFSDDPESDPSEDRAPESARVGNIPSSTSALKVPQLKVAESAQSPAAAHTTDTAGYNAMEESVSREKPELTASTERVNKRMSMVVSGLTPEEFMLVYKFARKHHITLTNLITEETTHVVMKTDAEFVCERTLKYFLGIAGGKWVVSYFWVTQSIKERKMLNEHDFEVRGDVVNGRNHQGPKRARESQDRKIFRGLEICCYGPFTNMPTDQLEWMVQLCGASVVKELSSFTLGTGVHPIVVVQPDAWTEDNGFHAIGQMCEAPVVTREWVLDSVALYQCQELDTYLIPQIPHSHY

Assay [6] addresses T2, Breast cancer type 1 susceptibility protein. Nature of the assay: Affinity Biochemical interaction: (ITC) EUB0002518a BRCA1. The arrangement: mode of action Inhibitor, recommended concentration 1 uM.
Assay [7] addresses Arginase-2, mitochondrial (Homo sapiens, UniProt P78540). The assay can be described thus: Affinity Biochemical interaction: (competitive binding assay with radiolabelled [guanido-14C][…] as substrate) EUB0002484aCl ARG2. The arrangement: mode of action Inhibitor, recommended concentration 1 uM.
Assay [8] has as its target T3, Bromodomain-containing protein 3 (Homo sapiens, UniProt Q15059). The assay can be described thus: (§1) Affinity Biochemical interaction: (BROMOscan assay) EUB0002282a BRD3. Further details: mode of action Inhibitor, recommended concentration 1 uM.
Assay [9] addresses T4, Bromodomain-containing protein 4 (Homo sapiens, UniProt O60885). The assay can be described thus: (§2) Affinity Biochemical interaction: (AlphaLISA) EUB0002282a BRD4. The assay is classed as functional. The arrangement: mode of action Inhibitor, recommended concentration 1 uM. Background: Alpha assays give light when donor and acceptor beads are brought close together.
In assay [10] the target is T5, Bromodomain-containing protein 2 (Homo sapiens, UniProt P25440). The assay can be described thus: (§3) Affinity Biochemical interaction: (BROMOscan assay) EUB0002282a BRD2. The arrangement: mode of action Inhibitor, recommended concentration 1 uM.
T5 sequence (P25440 whole entry): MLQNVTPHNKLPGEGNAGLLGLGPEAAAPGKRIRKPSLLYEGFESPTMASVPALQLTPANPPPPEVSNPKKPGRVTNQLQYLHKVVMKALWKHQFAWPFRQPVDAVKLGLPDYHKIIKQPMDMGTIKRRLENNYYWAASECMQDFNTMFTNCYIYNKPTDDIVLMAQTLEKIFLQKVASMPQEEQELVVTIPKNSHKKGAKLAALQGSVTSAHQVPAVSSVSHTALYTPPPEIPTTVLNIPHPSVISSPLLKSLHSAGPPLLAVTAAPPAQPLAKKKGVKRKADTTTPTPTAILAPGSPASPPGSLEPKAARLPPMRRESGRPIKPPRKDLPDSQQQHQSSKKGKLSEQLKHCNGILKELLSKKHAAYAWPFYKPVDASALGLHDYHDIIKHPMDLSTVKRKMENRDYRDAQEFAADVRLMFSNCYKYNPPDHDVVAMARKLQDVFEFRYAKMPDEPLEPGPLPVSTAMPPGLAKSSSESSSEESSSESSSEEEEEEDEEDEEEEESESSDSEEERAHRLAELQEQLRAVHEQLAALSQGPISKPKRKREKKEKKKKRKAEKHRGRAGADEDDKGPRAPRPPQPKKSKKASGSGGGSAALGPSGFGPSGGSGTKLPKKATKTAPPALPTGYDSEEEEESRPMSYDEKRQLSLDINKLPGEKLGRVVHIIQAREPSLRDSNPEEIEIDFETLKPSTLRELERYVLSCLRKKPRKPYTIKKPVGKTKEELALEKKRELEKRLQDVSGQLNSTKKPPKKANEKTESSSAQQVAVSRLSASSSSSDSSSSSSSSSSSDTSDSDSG
For assay [11], the target named is T4, Bromodomain-containing protein 4. The description is as §2. Further details: mode of action Inhibitor, recommended concentration 1 uM. The assay is classed as functional. This is another data set of the same source.
Assay [12] addresses T3, Bromodomain-containing protein 3. The description is as §1. Further details: mode of action Inhibitor, recommended concentration 1 uM. This is another data set of the same source.
Assay [13] addresses Bromodomain testis-specific protein (Homo sapiens, UniProt Q58F21). The assay can be described thus: Affinity Biochemical interaction: (BROMOscan assay) EUB0002282a BRDT. The arrangement: mode of action Inhibitor, recommended concentration 1 uM.
The target of assay [14] is T5, Bromodomain-containing protein 2. The description is as §3. Further details: mode of action Inhibitor, recommended concentration 1 uM. This is another data set of the same source.
The target in the next assay is Procathepsin L (Homo sapiens, UniProt P07711). The assay can be described thus: Affinity Biochemical interaction: (enzymatic assay (fluorogenic substrate cleavage)) EUB0002529a CTSL. The assay is classed as functional. The arrangement: mode of action Inhibitor, recommended concentration 1 uM.
In assay [15] the target is 3',5'-cyclic-AMP phosphodiesterase 4A (Homo sapiens, UniProt P27815). The assay can be described thus: Affinity Biochemical interaction: (fluorescence polarisation assay, inhibition of enzyme activity) EUB0002577a PDE4A. The assay is classed as functional. The arrangement: mode of action Inhibitor, recommended concentration 1 uM.
Assay [16] has as its target 3',5'-cyclic-AMP phosphodiesterase 4C (Homo sapiens, UniProt Q08493). Nature of the assay: Affinity Biochemical interaction: (fluorescence polarisation assay, inhibition of enzyme activity) EUB0002577a PDE4C. In kind it is functional. The arrangement: mode of action Inhibitor, recommended concentration 1 uM.
For assay [17], the target named is T6, Equilibrative nucleoside transporter 1 (Homo sapiens, UniProt Q99808). Nature of the assay: Affinity Biochemical interaction: (inhibition of [3H]nitrobenzylthioinosine binding to SLC29A1 in membranes) EUB0002560a SLC29A1. The assay is classed as cell membranes. The arrangement: mode of action Inhibitor, recommended concentration 1 uM.
T6 sequence (Q99808 whole entry): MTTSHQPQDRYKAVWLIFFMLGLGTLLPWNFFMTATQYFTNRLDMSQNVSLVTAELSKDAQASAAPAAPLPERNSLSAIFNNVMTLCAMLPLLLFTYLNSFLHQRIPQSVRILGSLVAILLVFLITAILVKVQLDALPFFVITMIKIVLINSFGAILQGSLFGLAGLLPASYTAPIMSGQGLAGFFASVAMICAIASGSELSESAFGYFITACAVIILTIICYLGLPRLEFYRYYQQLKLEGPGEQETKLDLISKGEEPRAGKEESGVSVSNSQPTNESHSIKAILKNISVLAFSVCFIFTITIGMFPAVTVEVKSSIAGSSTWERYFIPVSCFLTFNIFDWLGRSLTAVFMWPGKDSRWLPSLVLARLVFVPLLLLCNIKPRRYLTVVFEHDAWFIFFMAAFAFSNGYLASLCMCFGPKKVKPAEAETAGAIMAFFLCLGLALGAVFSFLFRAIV
For assay [18], the target named is T6, Equilibrative nucleoside transporter 1. The assay can be described thus: Affinity Biochemical interaction: (radioligand binding assay, inhibition of [3H]S-(4-Nitrobenzyl)-6-thioinosine binding to target) EUB0002560a SLC29A1. Further details: mode of action Inhibitor, recommended concentration 1 uM.
Assay [19] deals with cAMP and cAMP-inhibited cGMP 3',5'-cyclic phosphodiesterase 10A (Homo sapiens, UniProt Q9Y233). Nature of the assay: Affinity Biochemical interaction: (inhibition of enzyme activity with [3H]cGMP or [3H]cAMP as the substrate) EUB0002477a PDE10A. In kind it is functional. Further details: mode of action Inhibitor, recommended concentration 1 uM.
The target in assay [20] is High affinity cAMP-specific and IBMX-insensitive 3',5'-cyclic phosphodiesterase 8A (Homo sapiens, UniProt O60658). The assay can be described thus: Affinity Biochemical interaction: (inhibition of enzyme activity with [3H]cGMP or [3H]cAMP as the substrate) EUB0002477a PDE8A. In kind it is functional. Further details: mode of action Inhibitor, recommended concentration 1 uM.

Assay [21] concerns the target High affinity 3',5'-cyclic-AMP phosphodiesterase 7A (Homo sapiens, UniProt Q13946). The assay can be described thus: Affinity Biochemical interaction: (inhibition of enzyme activity with [3H]cGMP or [3H]cAMP as the substrate) EUB0002477a PDE7A. In kind it is functional. Further details: mode of action Inhibitor, recommended concentration 1 uM.
In assay [22] the target is cGMP-dependent 3',5'-cyclic phosphodiesterase (Homo sapiens, UniProt O00408). The assay can be described thus: Affinity Biochemical interaction: (inhibition of enzyme activity with [3H]cGMP or [3H]cAMP as the substrate) EUB0002477a PDE2A. In kind it is functional. Further details: mode of action Inhibitor, recommended concentration 1 uM.
The target of assay [23] is 3',5'-cyclic-AMP phosphodiesterase 4D (Homo sapiens, UniProt Q08499). Nature of the assay: Affinity Biochemical interaction: (inhibition of enzyme activity with [3H]cGMP or [3H]cAMP as the substrate) EUB0002477a PDE4D. The assay is classed as functional. The arrangement: mode of action Inhibitor, recommended concentration 1 uM.

T1 sequence (Q9NV35 whole entry): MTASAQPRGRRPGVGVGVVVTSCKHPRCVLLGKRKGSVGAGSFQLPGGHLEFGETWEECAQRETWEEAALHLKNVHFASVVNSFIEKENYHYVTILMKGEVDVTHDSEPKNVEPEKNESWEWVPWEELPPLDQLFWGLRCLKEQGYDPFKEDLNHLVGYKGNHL
T3 sequence (Q15059 whole entry): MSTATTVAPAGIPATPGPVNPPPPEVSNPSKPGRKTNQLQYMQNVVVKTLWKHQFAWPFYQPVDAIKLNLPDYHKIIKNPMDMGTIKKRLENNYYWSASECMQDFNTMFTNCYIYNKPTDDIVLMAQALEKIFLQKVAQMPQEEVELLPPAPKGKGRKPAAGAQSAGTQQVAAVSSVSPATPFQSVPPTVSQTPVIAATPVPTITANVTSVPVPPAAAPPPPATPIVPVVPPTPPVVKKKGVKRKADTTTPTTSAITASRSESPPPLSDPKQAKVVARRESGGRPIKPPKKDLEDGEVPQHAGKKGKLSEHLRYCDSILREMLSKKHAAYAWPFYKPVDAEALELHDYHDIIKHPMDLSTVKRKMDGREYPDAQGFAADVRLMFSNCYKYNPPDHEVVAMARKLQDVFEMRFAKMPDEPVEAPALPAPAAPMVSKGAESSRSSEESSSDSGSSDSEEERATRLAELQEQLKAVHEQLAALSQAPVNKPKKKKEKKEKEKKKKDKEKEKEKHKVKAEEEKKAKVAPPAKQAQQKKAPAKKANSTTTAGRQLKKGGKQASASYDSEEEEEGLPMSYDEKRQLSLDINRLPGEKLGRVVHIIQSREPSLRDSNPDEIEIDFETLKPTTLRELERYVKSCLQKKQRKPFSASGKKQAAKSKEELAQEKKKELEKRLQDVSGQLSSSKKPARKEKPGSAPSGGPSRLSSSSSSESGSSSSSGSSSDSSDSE
High affinity 3',5'-cyclic-AMP phosphodiesterase 7A, sequence (Q13946 whole entry): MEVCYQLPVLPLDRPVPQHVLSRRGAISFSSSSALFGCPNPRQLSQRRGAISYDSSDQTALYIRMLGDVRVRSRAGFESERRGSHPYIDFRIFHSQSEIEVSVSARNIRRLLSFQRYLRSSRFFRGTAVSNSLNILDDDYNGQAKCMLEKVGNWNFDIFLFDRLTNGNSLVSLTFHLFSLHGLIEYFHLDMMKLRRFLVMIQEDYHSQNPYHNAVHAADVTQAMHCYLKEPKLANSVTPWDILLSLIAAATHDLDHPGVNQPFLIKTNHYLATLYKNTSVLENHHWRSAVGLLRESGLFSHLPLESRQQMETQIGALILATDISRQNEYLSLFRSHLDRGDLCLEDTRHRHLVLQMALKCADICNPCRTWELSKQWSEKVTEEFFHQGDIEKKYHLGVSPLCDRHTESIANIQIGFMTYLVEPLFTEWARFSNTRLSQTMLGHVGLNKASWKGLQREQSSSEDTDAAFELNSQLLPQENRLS

As to `O=C(c1ccc2[nH]ccc2c1)N1CCN(S(=O)(=O)c2ccc3[nH]c(=O)oc3c2)CC1`, the figures for the IC50 in [1] and in assay [2] were 25 nM and 57 nM, respectively.
For `COc1cc(C(=O)N2C[C@H](N)CC[C@@H]2C)cc2nc(-c3cc4cccnc4n3CC3CC3)n(C)c12`, the IC50 (usually the concentration at which inhibition is half-maximal) in assay [3] stood at 98 nM.
Regarding `Cc1cc(C(=O)CN2CCCCC2)c(C)n1-c1ccc(Cl)cc1`, the midpoint of inhibition in [4], the IC50, lay at 600 nM.
Regarding `CCCCCCNC(=O)n1cc(F)c(=O)[nH]c1=O` [CARMOFUR], on Acid ceramidase, the IC50 was found to be 29 nM.
On to `Nc1ccc(-c2cccs2)cc1NC(=O)c1ccc(NC=O)cc1`, for which the IC50 at Histone deacetylase 1 is 40 nM; against Histone deacetylase 2, 100 nM.
In the case of `O=C(CNC(=O)[C@H](COP(=O)(O)O)NC(=O)CCc1c[nH]c2ccccc12)NCCCCc1ccccc1`, the IC50 in assay [5] turned out to be 310 nM. The Kd – broadly, a measure of binding affinity in units of concentration – in assay [6] was determined as 300 nM.
Take `N[C@@H](CCCCB(O)O)C(=O)O`: the Ki (usually the dissociation constant of the complex between target and ligand, obtained from inhibition or displacement) in [7] worked out at 250 nM. That is a sub-micromolar value.
On to `Cc1cc(-c2ccc3nc(C4CCOCC4)n(CCOC(F)(F)F)c3c2)cn(C)c1=O`, for which the Kd was 2.3 nM in assay [8]; 6.5 nM in [9]; 3.2 nM in assay [10]; 7.6 nM in [11]; 2.9 nM in assay [12]; 3.1 nM in assay [13]. In assay [14], binding was put at a Kd of 5.2 nM.
`Cn1nc(C(C)(C)C)cc1C(=O)NC(Cc1cccc(Cl)c1)C(=O)NCC#N` (configuration not stated) displayed a Ki at Procathepsin L of 82 nM. This lies in the double-digit nanomolar range.
For `CC(C)NC(=O)c1ccc(OC(F)F)c(OCC2CC2)c1`, the results for the IC50 in assay [15] and in [16] were 113 nM and 164 nM, respectively.
As to `NC(=O)C1CN(CCCCC(c2ccc(F)cc2)c2ccc(F)cc2)CCN1CC(=O)Nc1c(Cl)cc(N)cc1Cl` (configuration not stated) [DRAFLAZINE], the inhibition constant Ki in assay [17] stood at 0.28 nM; in [18], 0.94 nM.
For `C[C@H](Nc1nc2c(cnn2C2CCCC2)c(=O)[nH]1)c1ccc(Cl)cc1`, the IC50 was 2.3 nM in assay [19]; 1 nM in assay [20]; 2.5 nM in [21]; 2.4 nM in assay [22]; 1.3 nM in assay [23].
